Source: patent US20130274247A1 (priority 2012, published 2013)
Read-outs that look alike come from different tables or passages of the source.

How the values were obtained:
in vivo = assay: in vivo; design: species or system cat; settings: for AUC(0-inf) / CL/F / Cmax / Tmax / Vd/F: both sexes
Description: In this prospective pharmacokinetic study, 6 client-owned stable CKD cats, 2 each from International Renal Interest Society (IRIS) stages II, III and IV, […] and 6 age-matched (within 6 months) healthy geriatric control cats (AMC) were enrolled by stratified convenience sampling. There were 4 spayed females and 2 neutered males in the CKD group and 3 spayed females and 3 neutered males in the AMC group. […] Diagnostic tests required before enrollment included a minimum database consisting of serum biochemistry profile, CBC, urinalysis, urine culture, blood pressure, and serum total thyroxine concentration. […] Exclusion criteria included other systemic illnesses, complications of CKD such as hypertension, pyelonephritis or ureteral obstruction, or decompensation of CKD requiring hospitalization and IV fluid therapy. The project was approved by the Institutional Animal Care and Use Committee at Colorado State University, and all owners gave written informed consent before participation. […] Samples were centrifuged within 10 minutes of collection and serum was harvested and stored at —80° C. until analysis. […] Pharmacokinetic analysis was performed using a non-compartmental method. Area under the curve to infinity (AUC∞), disappearance half-life (t½^λ), time to maximum serum concentration (Tmax), and maximum serum concentration (Cmax) were calculated. […] The terminal elimination rate was used for estimating the accumulation factor as the applicable kel, and the dosing interval (T) was set at 24 or 48 hours. Comparison of pharmacokinetic parameters between the CKD and AMC cat groups was performed using a Mann-Whitney U-test. Prism software© was used for all analyses.

young normal cats = settings: cited from earlier work
[1] = Stability of compounded 1.88 mg mirtazapine capsules (LC/MS/MS); format: physicochemical; settings: compounded 1.88 mg capsules
Description: The method used is guaranteed to produce accurate compounding to within 10% of the target dose.

[2] = humans; cited from earlier work
cats = settings: cited from earlier work
CKD cats = assay: Effect of mirtazapine on weight, appetite, activity and vomiting in CKD cats; format: in vivo, cat; settings: 1.88 mg every other day for three weeks
Description: FIG. 1. […] FIG. 2. […] FIG. 3. […] FIG. 4.

[3] = cited from earlier work

difference in AUC∞ between AMC cats and CKD cats (in vivo): statistically significant difference | AUC(0-inf) (in vivo; po, 1.88 mg, Mean ± SD): 590 ± 185 ng·h/mL | AUC(0-inf) (in vivo; po, 1.88 mg, Median): 561 ng·h/mL | CL/F (in vivo; po, 1.88 mg, Mean ± SD): 13.2 mL/min/kg | CL/F (in vivo; po, 1.88 mg, Median): 12.2 mL/min/kg | Cmax (in vivo; po, 1.88 mg, Mean ± SD): 79.6 ± 21.7 ng/mL | Cmax (in vivo; po, 1.88 mg, Median): 83.6 ng/mL | Tmax (in vivo; po, 1.88 mg, Mean ± SD): 2 ± 1.5 h | Tmax (in vivo; po, 1.88 mg, Median): 1 h | Vd/F (in vivo; po, 1.88 mg, Mean ± SD): 13.9 ± 3.2 L | Vd/F (in vivo; po, 1.88 mg, Median): 14.4 L | CL/F, Mean ± SD (in vivo; both, po, 1.88 mg): 10.2 mL/min/kg | CL/F, Median (in vivo; both, po, 1.88 mg): 10 mL/min/kg | Cmax, Mean ± SD (in vivo; both, po, 1.88 mg): 110.6 ± 30.8 ng/mL | Cmax, Median (in vivo; both, po, 1.88 mg): 109.5 ng/mL | AUC∞, Mean ± SD (in vivo; po, 1.88 mg): 866.5 ± 257.9 ng·h/mL | AUC∞, Median (in vivo; po, 1.88 mg): 828.4 ng·h/mL | Vd/F, Mean ± SD (in vivo; po, 1.88 mg): 13.6 ± 2.0 L | Vd/F, Median (in vivo; po, 1.88 mg): 13.4 L | stability as formulated [1]: at least 6 months
SMILES: CN1CCN2c3ncccc3Cc3ccccc3C2C1 (stereo not shown) [mirtazapine]
food consumption as compared to placebo (young normal cats; 1.88 mg/cat): increased food consumption | food consumption as compared to placebo (young normal cats; 3.75 mg/cat): increased food consumption | appetite stimulation (young normal cats; dose of 1.88 mg): significantly stimulates appetite | AUC in young men compared to women [2]: lower | other reported adverse effects (hyperexcitability, muscle tremors) (cats): mild and dose dependent | Effect on weight (CKD cats; p=0.002): statistically significant increase | Effect on activity (CKD cats; p=0.02): statistically significant increase | Effect on appetite score (CKD cats; p=0.02): statistically significant increase | Effect on vomiting (CKD cats; p=0.047): statistically significant decrease | mean AUC ([3]; normal cats, previously reported): 397 ng/mL/h | mean CL/F ([3]; young healthy cats): 18.3 mL/min/kg
